Measurements from ChEMBL document CHEMBL3046141, “Partition coefficient determination of a series of isoindolines-2-substituted and its correlation with their antiproliferative activity on HeLa cells” (Med Chem Res, 2013).
pIC50: −log10 of the molar value.

Legend:
HeLa [1] = assay: Cytotoxicity against Homo sapiens (human) HeLa cells assessed as metabolic active cells after 24 hr by MTT assay; format: functional, cell-based
[2] = n-octanol-water partition coefficient, log P of the compound by shake-flask method; format: physicochemical
HeLa [3] = assay: Cytotoxicity against Homo sapiens (human) HeLa cells assessed as cell viability after 24 hr by crystal violet staining; format: functional, cell-based

Structure (SMILES) | logP [2] | pIC50 (HeLa [1]) | pIC50 (HeLa [3])
COC(=O)CN1Cc2ccccc2C1 | -0.027 | 2.08 | 2.44
COC(=O)[C@H](CC(C)C)N1Cc2ccccc2C1 | 0.065 | 2.59 | 2.50
COC(=O)[C@H](Cc1c[nH]c2ccccc12)N1Cc2ccccc2C1 | 1.45 | 2.01 | 2.07
O=C(O)CN1Cc2ccccc2C1 | -0.229 | 2.06 | 2.25
CC(C)C[C@@H](C(=O)O)N1Cc2ccccc2C1 | 0.114 | 2.34 | 2.37
O=C(O)[C@H](Cc1c[nH]c2ccccc12)N1Cc2ccccc2C1 | 0.347 | 2.12 | 2.05

More lines, main results first:

logP [2] | Structure (SMILES) | pIC50 (HeLa [1]) | pIC50 (HeLa [3])
1.35 | COC(=O)[C@H](c1ccccc1)N1Cc2ccccc2C1 | 2.08 | 2.27
-0.31 | O=C(O)[C@H](c1ccccc1)N1Cc2ccccc2C1 | 2.02 | 2.15
